Where no end group is shown, it is not given here.
Assays:
[1] = tested on: chemokine receptor CCR6; parameters: method as in PMID 12840147; conditions: binding and activation of CCR6; cited from earlier work
[2] = cited from earlier work
Description: (§1) Three characteristic disulfide bonds stabilize the defensins’ structure and are essential for some, but not all functions of the peptides. […] This is likely because the preserved defensin structure is required in the later case, when the cell wall synthesis machinery is targeted, but not in the former case, when defensins directly affect membranes of Gram-negative bacteria. In contrast, reduction of disulfi ...

[3] = tested on: TEV Protease; assay type: binding, tobacco etch virus (TEV); conditions: DSF
Description: (§2) Differential scanning fluorimetry (DSF)

[4] = tested on: HSV; parameters: method as in PMID 17142766; conditions: cited from earlier work
[5] = tested on: gp41; conditions: cited from earlier work
[6] = tested on: TEV Protease; parameters: species or system tobacco etch virus (TEV); conditions: 10 μM protein; HNP-1 20 and 50 μM or RC-101 30 and 60 μM; 30 min, […] °C, pH 7.5, 100 mM NaCl; 280,000 g, SDS-PAGE
Description: Precipitation of HIV-1 MA, HIV-1 CA, and TEV protease was assessed by differential ultracentrifugation. […] All samples were centrifuged using TLA-100 rotor in Optima TL-100 ultracentrifuge (Beckman Coulter) at 280,000 g for 30 min at 4 °C. The supernatant (soluble) and pellet (precipitated) fractions were collected, supplemented with 1/3rd of the volume of 4x reducing sample buffer (200 mM Tris, pH 6.8, 40% glycerol, 8% SDS, 400 mM β-mercaptoethanol, 0.4% bromophenol blue), pellets resuspended, and samples resolved on SDS-PAGE.

[7] = tested on: TEV Protease; assay type: biochemical, tobacco etch virus (TEV); conditions: disulfide bonds reduced with 10 mM TCEP, one hour pre-incubation at room temperature
Description: TEV protease activity assay
The reactions were stopped by boiling in reducing sample buffer; proteolytic products were resolved on SDS-PAGE. For reducing condition experiments, the reaction buffer was supplemented with 10 mM tris(2-carboxyethyl)phosphine (TCEP) and the defensins were pre-incubated with 10 mM TCEP for one hour at room temperature before co-incubation with the TEV protease. Note, the ammonium salt of TCEP (Sigma #646547) used in this study has neutral pH (7.0). Care was taken to verify that the final pH of the working solutions was not changed after the addition of TCEP.

[8] = tested on: HIV-1 CA; conditions: 10 μM CA, 3-fold molar excess HNP-1, chymotrypsin (1:100 w/w) or thermolysin (1:200 w/w), 37 °C, 20 mM HEPES pH 7.5, 100 mM NaCl, 5 mM CaCl2, SDS-PAGE
Description: (§3) Briefly, viral proteins (5–10 μM) were mixed with 3-fold molar excess of HNP-1 (i.e. 15–30 μM) in a 20 mM HEPES buffer (pH 7.5) supplemented with 100 mM NaCl and 5 mM CaCl2. […] The reactions were stopped by adding reducing sample buffer (50 mM Tris, pH 6.8, 10% glycerol, 2% sodium dodecyl sulfate (SDS), 100 mM β-mercaptoethanol, 0.1% bromophenol blue) supplemented with 2 mM phenylmethylsulfonyl fluoride (PMSF) and 10 mM ethylenediaminetetraacetic acid (EDTA) and boiling for 5 min. The protein samples were resolved on SDS-PAGE.

[9] = tested on: HIV-1; conditions: cited from earlier work
[10] = tested on: HIV-1 IN; conditions: HTRF; IN 400 nM; defensin 1–10 μM, 30 min room temperature; strand transfer three hours 37 °C, pH 7.5
Description: Homogenous time-resolved fluorescence (HTRF)-based integration activity assay
To test the HIV-1 integrase (IN) activity in the presence and absence of defensins, previously developed HTRF technique[41][42] was used with some modifications. […] Following the incubation with the defensins, a 5′-Cy5-labelled 21-mer viral donor DNA (200 nM) and 3′-biotinylated target DNA (20 nM) were added to the reaction. […] 0.5 M NaCl (final concentration in the development solution) allows dissociating of all DNA from IN to prevent FRET signal from non-covalently associated donor and target DNA. Following an overnight incubation at 4 °C, the HTRF signal was recorded with an EnSpire multimode plate reader (PerkinElmer).

[11] = tested on: PFV IN; parameters: species or system prototype foamy virus (PFV); conditions: 5 μM PFV IN, 3-fold molar excess HNP-1, chymotrypsin (1:100 w/w) or thermolysin (1:200 w/w), 37 °C, 20 mM HEPES pH 7.5, 100 mM NaCl, 5 mM CaCl2, SDS-PAGE
Description: Limited proteolysis was conducted as described previously. […] The protein samples were resolved on SDS-PAGE.

[12] = tested on: HIV-1 MA; conditions: 10 μM MA, 3-fold molar excess HNP-1, chymotrypsin (1:100 w/w) or thermolysin (1:200 w/w), 37 °C, 20 mM HEPES pH 7.5, 100 mM NaCl, 5 mM CaCl2, SDS-PAGE
Description: as §3

[13] = tested on: gp41; conditions: cited from earlier work; remark: listed apart in the source
[14] = tested on: PFV IN; assay type: binding, prototype foamy virus (PFV); conditions: DSF, 5-fold molar excess of cyclotide
Description: as §2

[15] = tested on: HIV-1 Gag-Δp6; conditions: DSF, 5-fold molar excess of cyclotide
Description: (§4) Viral protein samples (5–20 μM) in a 20 mM 4-(2-hydroxyethyl)-1-piperazineethanesulfonic acid (HEPES) buffer (pH 7.5) supplemented with 150 mM NaCl and 1x SYPRO Orange dye (Invitrogen) were subjected to temperature denaturation in the absence or presence of defensins. […] Temperature melting profiles were acquired with a CFX96 Touch Real-Time PCR Detection System (Bio-Rad). Melting temperatures for proteins alone and in the presence of different defensins were calculated as described previously[76].

[16] = tested on: HIV-1 IN; conditions: DSF, 5-fold molar excess of cyclotide
Description: as §4

[17] = tested on: HIV-1 CA; conditions: DSF, 5-fold molar excess of cyclotide
Description: as §4

[18] = tested on: Actin Crosslinking Domain (ACD); assay type: binding, Vibrio cholerae; conditions: 5-molar excess of peptide to the toxin
[19] = tested on: Gram-negative and Gram-positive bacteria; conditions: reduction of disulfide bonds; cited from earlier work
Description: as §1

[20] = tested on: gp41-derived peptide mixture of N36/C34; parameters: method as in PMID 16648135; conditions: cited from earlier work
[21] = tested on: serine protease; parameters: method as in PMID 23171075; conditions: greatly increased with elevated temperature; cited from earlier work
[22] = tested on: dengue virus DENV-2; parameters: method as in PMID 23171075; conditions: activity greatly increased with elevated temperature; cited from earlier work
[23] = tested on: Ad5.F35 capsid; conditions: CryoEM; with signs of local disorganization of hexon, penton base, fiber; cited from earlier work
Description: It is likely that the potent destabilizing effects imposed by defensins are pertinent at numerous physiological occasions and particularly upon dynamic structural transitions in the course of capsid assembly, uncoating, and membrane fusion. Yet, we are far from proposing that the destabilization of purified viral proteins by defensins observed in vitro accurately represents the complexity of physiological conditions including, but not limited to, interactions of viral proteins with each other, viral nucleic acids, and host proteins. Thus, in apparent contradiction with our resu ...

Molecule: hBD-3: human beta-defensin 3 (GIINTLQKYYCRVRGGRCAVLSCLPKEEQIGKCSTRGRKCCRRKK; ends and bridges not checked; cysteine pairing not given here; UniProt P81534 23-67, looked up)
- Need of disulfide bonds for chemotactic activity [1]: required for its chemotactic activity
- Need of disulfide bonds for antimicrobial activity [2]: dispensable for its antimicrobial activity

Molecule: HNP-1: human neutrophil α-defensin peptide HNP-1, prepared by solid-phase peptide synthesis
- Ability to promote unfolding of TEV protease, reducing conditions ([3]; disulfide bonds reduced with 10 mM TCEP): complete loss
- HSV infection [4]: inhibit HIV-1 and HSV infections at multiple steps
- Refolding lifetime of gp41 intermediates in pre-hairpin conformation [5]: prolong refolding lifetime of gp41 intermediates in pre-hairpin conformation
- Precipitation of TEV protease [6]: dose-dependent precipitation
- Ability to inhibit proteolytic activity of TEV protease, reducing conditions [7]: complete loss
- Detectable amounts of cleaved products of HIV-1 CA [8]: drastic reduction in the detectable amounts of cleaved products
- HIV-1 infection [9]: inhibit HIV-1 and HSV infections at multiple steps
- Strand transfer activity of HIV-1 IN [10]: inhibited the strand transfer activity of IN
- Detectable amounts of cleaved products of PFV IN [11]: drastic reduction in the detectable amounts of cleaved products
- Detectable amounts of cleaved products of HIV-1 MA [12]: drastic reduction in the detectable amounts of cleaved products
- Refolding of gp41 into 6-helix bundle [13]: impaired refolding of gp41 into the 6-helix bundle structure triggering their aggregation

Molecule: kalata B1 [kB1]
- Ability to potentiate unfolding of TEV protease ([3]; 5-fold molar excess of cyclotide): none of the four cyclotides used in this study (cyO2, cyO19, kB1, and kB7) demonstrated an ability to potentiate unfolding
- Ability to potentiate unfolding of PFV IN [14]: none of the four cyclotides used in this study (cyO2, cyO19, kB1, and kB7) demonstrated an ability to potentiate unfolding
- Ability to potentiate unfolding of HIV-1 Gag-Δp6 [15]: none of the four cyclotides used in this study (cyO2, cyO19, kB1, and kB7) demonstrated an ability to potentiate unfolding
- Ability to potentiate unfolding of HIV-1 IN [16]: none of the four cyclotides used in this study (cyO2, cyO19, kB1, and kB7) demonstrated an ability to potentiate unfolding
- Ability to potentiate unfolding of HIV-1 CA [17]: none of the four cyclotides used in this study (cyO2, cyO19, kB1, and kB7) demonstrated an ability to potentiate unfolding
- Unfolding / DSF thermal denaturation profile of ACD toxin [18]: none of the four cyclotides used in this study (cyO2, cyO19, kB1, and kB7) demonstrated an ability to potentiate unfolding

Molecule: hBD-1: human β-defensin hBD-1, prepared by solid-phase peptide synthesis (DHYNCVSSGGQCLYSACPIFTKIQGTCYRGKAKCCK; ends and bridges not checked; cysteine pairing not given here; UniProt P60022 33-68, looked up)
- Effect on thermal melting of TEV protease, reducing conditions ([3]; reduced β-defensin, 10 mM TCEP): had no effect on thermal melting
- Effect of disulfide reduction on antimicrobial activity [19]: activates hBD-1 antimicrobial activity against both Gram-negative and Gram-positive bacteria

Molecule: retrocyclin-1 [RC-1]
- Circular dichroism spectrum of N36/C34 [20]: transformed into a random coil-like spectrum
- DENV-2 serine protease activity [21]: interfering with the activity of its serine protease
- Dengue virus DENV-2 replication [22]: inhibits dengue virus DENV-2 replication
- Refolding of gp41 into 6-helix bundle [13]: impaired refolding of gp41 into the 6-helix bundle structure triggering their aggregation

B1: HD-5: human enteric α-defensin HD-5, prepared by solid-phase peptide synthesis (peptide, UniProt Q01523 20-94, looked up)
Defensin alpha 5: ESLQERADEATTQKQSGEDNQDLAISFAGNGLSALRTSGSQARATCYCRTGRCATRESLSGVCEISGRLYRLCCR
modifications: Defensin-5
notes: human enteric α-defensin HD-5, prepared by solid-phase peptide synthesis
- Stability of Ad5.F35 capsid [23]: overall stabilization of Ad5.F35 capsid
